The text below walks through data of patent publication US20020061839A1, “Serine peptidase modulators” (priority 1998, published 2002).

“Also recorded” adds a separate entry of the source. Bounds are passed on as bounds.

A word on the IC50: it is the point on the concentration scale where inhibition reaches its midpoint. The term melting point denotes the temperature, or range, at which the solid turns liquid. The half-life is the time in which the quantity being followed falls by half. The low end stands for fast loss, the high end for slow loss.

One series deals with T1, Prolyl oligopeptidase (Homo sapiens, UniProt P48147).
T1 construct: Prolyl oligopeptidase was purified from human platelets; from tissue; host or cells: human platelets
T1 sequence (P48147 1-710): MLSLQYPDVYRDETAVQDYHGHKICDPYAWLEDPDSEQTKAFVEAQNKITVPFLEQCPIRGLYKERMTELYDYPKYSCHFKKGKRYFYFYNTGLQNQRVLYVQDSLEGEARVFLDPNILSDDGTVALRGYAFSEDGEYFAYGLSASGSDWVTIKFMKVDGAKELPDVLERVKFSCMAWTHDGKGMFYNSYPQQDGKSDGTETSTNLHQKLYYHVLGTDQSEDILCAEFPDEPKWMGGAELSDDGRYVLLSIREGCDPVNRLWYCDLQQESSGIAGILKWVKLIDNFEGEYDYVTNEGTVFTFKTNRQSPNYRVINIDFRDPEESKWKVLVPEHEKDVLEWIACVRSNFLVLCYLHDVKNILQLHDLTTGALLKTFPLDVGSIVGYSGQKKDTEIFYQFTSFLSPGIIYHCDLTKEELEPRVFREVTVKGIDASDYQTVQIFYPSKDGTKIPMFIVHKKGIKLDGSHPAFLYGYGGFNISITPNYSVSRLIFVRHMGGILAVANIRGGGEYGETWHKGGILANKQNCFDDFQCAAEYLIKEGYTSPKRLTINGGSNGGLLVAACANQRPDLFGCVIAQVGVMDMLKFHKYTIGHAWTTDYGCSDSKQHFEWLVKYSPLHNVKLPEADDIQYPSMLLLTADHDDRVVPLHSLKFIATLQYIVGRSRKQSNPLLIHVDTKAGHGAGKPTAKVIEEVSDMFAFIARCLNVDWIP
Put plainly: Inhibition of prolyl oligopeptidase (PO), Z-Gly-Pro-AMC substrate. Particulars: PO from human platelets, 20 min at 37° C. The series is classed as biochemical. On the procedure:
Prolyl oligopeptidase was purified from human platelets and the enzyme activity was measured using Z—Gly—Pro—AMC (4.4 mM) as the substrate in a K-phosphate buffer 100 mM, pH 7.5 containing 1 EM EDTA, 1 mM dithiothreitol and 1 mM NaN3. The incubation was carried out during 20 min at 37° C. The reaction was stopped by the addition of 5 volumes 1.5 M acetic acid. Fluorescence was measured at 370 and 440 nm as excitation and emission wavelengths respectively. The inhibitors were added at concentrations varying between 1 μM and 1 mM.

Series [1] deals with human peripheral blood mononuclear cells (PBMC). The series can be described thus: In vitro cytotoxicity in PBMC, trypan blue exclusion. Particulars: freshly isolated mononuclear cells or phytohemagglutinin stimulated blasts, concentrations up to 100 μM. The series is classed as cell-based. On the procedure:
Peripheral blood mononuclear cells were isolated from buffy coats (obtained from the blood transfusion center of Antwerp). After dilution (¼) in phosphate buffer saline (PBS), cells were layered onto Ficoll-Hypaque density gradient (Pharmacia, Uppsala, Sweden) and centrifuged at room temperature at 550×g during 20 min. The interfaces were collected and washed 3 times in RPMI-1640. Finally the cells were resuspended at 1×10^6 cells/mL in RPMI-1640 containing 10% heat-inactivated foetal calf serum, and antibiotics (penicillin/streptomycin) (Gibco). These freshly isolated cells were used immediately for inhibitor studies or first stimulated with phytohaemagglutinin (Murex diagnostics) at 1 μg/mL during 3 days at 37° C. in a 5% CO2 humidified incubator. Inhibitor (stock solution at −80° C. in phosphate buffer, diluted ex tempore in RPMI-1640) or vehicle alone was added to the cells (5×10^6/test) at different concentrations. After overnight incubation at 37° C., an aliquot was taken for cytotoxicity evaluation by 0.4% trypan blue exclusion. The remaining cells were washed 3 times in PBS and the final cell pellet was solubilised in 200 μL PBS containing 1% v/v Triton X-100 and 100 KIU/mL aprotinin (Bayer) and centrifuged during 10 min at 20000×g. Supernatants were used immediately for enzyme assay and protein determination by the Bradford micro-assay. Specific activities (U/g protein) are compared and the % inhibition is given toward control samples without inhibitor.

Series [2] in a line: Systemic and local toxicity in rats. The class given is in vivo. The note with it: for acute systemic or local toxicity: daily subcutaneous injection of 50 mg/kg (initial dose 100 mg/kg). As for the experimental part:
They received standard diet and water ad lib. […] Blood was sampled from the central ear artery. Rats and mice were injected subcutaneously or intraperitoneally.

Series [3] in a line: Side effects in rabbits after intravenous injection. Particulars: single intravenous injection of 0.2 mg/kg. The series is classed as in vivo. On the procedure:
[…]. They received standard diet and water ad lib. […] Blood was sampled from the central ear artery. Rats and mice were injected subcutaneously or intraperitoneally.

The nature of the next series: in vitro. Particulars: human, plasma.
Series [4] is described as follows: Graft acceptance upon alloantigen challenge. The class given is in vivo, rats. The note with it: monotherapy.
In the next series the target is Dipeptidyl peptidase II. The note with it: DPP II semi-purified from rabbit kidney, pH 5.5, 20 minutes at 37° C.

Description for Dipeptidyl peptidase II: After incubation during 20 minutes at 37° C., the reaction was stopped by the addition of 10 fold excess sodium-acetate pH 3.6.

Consider `C[C@H](NC(=O)OCc1ccccc1)C(=O)Nc1ccc(OP(=O)(Oc2ccc(NC(=O)[C@H](C)NC(=O)OCc3ccccc3)cc2)C2CCCN2C(=O)[C@@H]2CCCN2C(=O)OCc2ccccc2)cc1` (mixture of isomers) [10j, Di[4-(N-benzyloxycarbonyl-(S)-alanylamino)phenyl]-1-(benzyloxycarbonyl-(S)-prolyl)pyrrolidine-2(R,S)-phosphonate], for which the melting point lay in the range of 200 to 203 °C. In addition, on Prolyl oligopeptidase, the half-maximal inhibitory concentration (IC50) is > 500 µM.
Consider `O=C1CC[C@@H](C(=O)Nc2ccc(OP(=O)(Oc3ccc(NC(=O)[C@@H]4CCC(=O)N4)cc3)C3CCCN3C(=O)[C@@H]3CCCN3C(=O)OCc3ccccc3)cc2)N1` (mixture of isomers) [10k, Di[4-((S)-pyroglutamylamino)phenyl]-1-(benzyloxycarbonyl-(S)-prolyl)pyrrolidine-2(R,S)-phosphonate], for which the melting point is 170 °C (dec.). Moreover, the midpoint of inhibition against Prolyl oligopeptidase, the IC50, lay at 9 µM.
As to `CC(=O)Nc1ccc(OP(=O)(Oc2ccc(NC(C)=O)cc2)C2CCCN2C(=O)[C@@H]2CCCN2)cc1.Cl` (mixture of isomers) [11e, Di(4-acetamidophenyl) 1-((S)-prolyl)pyrrolidine-2(R,S)-phosphonate hydrochloride], the cytotoxicity result in series [1] (hydrochloride) is listed as “no cytotoxicity; also recorded: did not show cytotoxicity”. The “acute systemic or local toxicity” value in series [2] (rats, hydrochloride) is “without any sign of acute systemic or local toxicity; also recorded: no acute systemic or local toxicity”.
Take `CCOC(=O)CNC(=O)c1ccc(OP(=O)(Oc2ccc(C(=O)NCC(=O)OCC)cc2)C2CCCN2C(=O)[C@@H]2CCCN2)cc1` (mixture of isomers) [11n, Di{4-[(ethoxycarbonyl)methylaminocarbonyl]phenyl}1-((S)-prolyl)pyrrolidine-2(R,S)-phosphonate]: the cytotoxicity entry in series [1] is given as “did not show cytotoxicity; also recorded: no cytotoxicity”. The side effects result in series [3] was “without side effects”. In addition, the “acute systemic or local toxicity” value in series [2] (rats) is recorded as “without any sign of acute systemic or local toxicity; also recorded: no acute systemic or local toxicity”. Further, in the series “in vitro”, the half-life at 1 mM was found to be 0.583 ± 0.0333 h.
`O=C([C@@H]1CCCN1)N1CCCC1P(=O)(Oc1ccccc1)Oc1ccccc1` (mixture of isomers) [compound 5, diphenyl 1-(S)-prolyl-pyrrolidine-2-(R,S)-phosphonate]: the “systemic toxicity and local ulcerations” value in series [2] (monotherapy) is “occasionally also caused systemic toxicity and more often local ulcerations”. The systemic toxicity entry in series [2] (rats, intravenously) is recorded as “adequate inhibition could not be reached without severe systemic toxicity”. For the same compound, the graft acceptance result in series [4] is listed as “significantly prolonged graft acceptance”. In “in vitro”, this compound gave a half-life at 1 mM of 4.17 ± 0.167 h.
As to `Cl.O=C([C@@H]1CCCN1)N1CCC[C@H]1P(=O)(Oc1ccccc1)Oc1ccccc1` [11a (R), Diphenyl 1-((S)-prolyl)pyrrolidine-2(R)-phosphonate hydrochloride], in series [1], the cytotoxicity entry is recorded as “no satisfactory inhibition of DPP IV activity could be reached without cytotoxic effects”. Besides, the half-life at 1 mM in “in vitro” is 5 ± 0.5 h.
`CC(NC(=O)[C@@H](N)Cc1ccccc1)P(=O)(Oc1ccccc1)Oc1ccccc1` (stereo partly drawn) [Phe-AlaP(OPh)2, Diphenyl 1(R,S)-L-phenylalanyl aminoethane phosphonate] returned an IC50 on Dipeptidyl peptidase II of 800 µM.
On Dipeptidyl peptidase II, `CC(NC(=O)[C@@H]1CCCN1)P(=O)(Oc1ccccc1)Oc1ccccc1` (stereo partly drawn) [Pro-AlaP(OPh)2, diphenyl 1(R,S)-L-prolyl aminoethane phosphonate] returned an IC50 of 1500 µM.
